Like-named read-outs stand apart in the source and are kept apart here.
What was measured:
[1] = system: MCF-7 cells; assay: Clonogenic assay in MCF-7 cells with AHR antagonist CH223191; assay type: cell-based, human; settings: MCF-7, 10 nM compound, 1 μM CH223191, 14 days
Procedure: (§1) Cells were seeded at a density of 1–2×10^3 cells/well in a 6-well plate and treated with increasing concentrations of the X compounds for 14–21 days. Medium and compounds were renewed every 7 days. The experiments were terminated by fixing the cells with methanol and the colonies formed were visualized after staining with 0.5% crystal violet (w/v) in 20% methanol (v/v). Plates were photographed and the area covered by the colonies was calculated using the ColonyArea Plugin for Fiji (RRID:SCR_003070).[20]

[2] = target: T1, hERα (Homo sapiens, UniProt P03372); assay: ER/ERE luciferase reporter assay in HELN hERα cells; assay type: cell-based; settings: 10 nM–10 μM compound, with E2, 24 h
T1 construct: expressed in transfected cells; host or cells: HeLa (HELN hERα)
T1 sequence (P03372 1-595): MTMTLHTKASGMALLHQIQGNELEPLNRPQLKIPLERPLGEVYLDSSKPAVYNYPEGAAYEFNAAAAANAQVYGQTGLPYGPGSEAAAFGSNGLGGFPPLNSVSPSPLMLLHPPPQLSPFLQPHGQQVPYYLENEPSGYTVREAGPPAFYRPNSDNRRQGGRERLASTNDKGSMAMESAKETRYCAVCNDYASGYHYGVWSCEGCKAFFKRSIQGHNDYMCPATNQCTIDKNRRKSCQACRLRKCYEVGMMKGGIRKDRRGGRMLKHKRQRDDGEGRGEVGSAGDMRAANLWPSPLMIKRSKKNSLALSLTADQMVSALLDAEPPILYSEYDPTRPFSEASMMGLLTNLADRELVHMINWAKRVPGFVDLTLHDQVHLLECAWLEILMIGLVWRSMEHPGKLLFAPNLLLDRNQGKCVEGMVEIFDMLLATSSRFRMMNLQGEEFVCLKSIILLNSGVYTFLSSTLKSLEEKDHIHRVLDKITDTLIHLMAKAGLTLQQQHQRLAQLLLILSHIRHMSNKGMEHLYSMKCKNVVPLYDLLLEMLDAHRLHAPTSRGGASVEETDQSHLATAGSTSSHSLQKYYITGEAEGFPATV
Excerpt: (§2) To characterize the chemical induced AHR activity, we used the already established HAHLH reporter cell lines obtained by stably expression of HeLa cells with the dioxin-responsive gene XRE(TnGCGTG)3-tata-luciferase-Luc-hygromycin plasmid.[29] The reporter HELN hERα cell line was obtained by transfecting human HeLa cells with the ERE-responsive gene ERE-βGlobin-luciferase-Luc-neomycin and the pSG5-hERα-puromycin plasmids as previously described.[59] To determine the action of the chemical on AHR and hERα activity, cells were seeded at a density of 50,000 cells per well in 96-well white opaque tissue culture plates (Greiner CellStar) in 150 μL of Dulbecco’s Modified Eagle Medium: Nutrient Mixture F-12 (DMEM/F- 12) without phenol red and 1 g/L glucose and supplemented with 5% stripped fetal bovine serum, 100 units/mL of penicillin, 100 μg/mL of streptomycin (test medium). Twenty-four hours later, chemicals to be tested were added at 4x concentration in culture medium, and cells were incubated at 37 °C for 8 h (HAhLH cells) or 24 h (HELN hERα cells). At the end of the incubation period, culture medium was replaced with test medium containing 0.3 mM luciferin and luciferase activity was measured for 2 s in intact living cells using a MicroBeta Wallac luminometer (PerkinElmer). Tests were performed in quadruplicate at 4x concentration in the same medium in at least 4 independent experiments. Results were expressed as % of the maximal luciferase activity. […] Effective concentration (ECs) for a given compound, EC50 is defined as the concentration inducing 50% of its maximal effect. The EC50 values were calculated including the adjustment for the basal activity of the cell line.

[3] = system: MCF-7 luc D538G; assay: Clonogenic assay (clonal expansion), MCF-7 cells with D538G ER mutation; assay type: cell-based; settings: Homo sapiens, MCF7, 336 h
Procedure: as §1

[4] = system: ER+ MCF-7, ZR75–1, and T47D breast cancer cells; design: method as in PMID 37520743; settings: previously identified ref 17; cited from earlier work
[5] = system: MCF-7 luc; assay: Clonogenic assay (clonal expansion), MCF-7 cells expressing wild-type ER; assay type: cell-based; settings: Homo sapiens, MCF7, 336 h
Procedure: as §1

[6] = target: T2, ERα full-length (Homo sapiens, UniProt P03372); assay: PolarScreen ERα Competitor Assay (fluorescence polarization); assay type: binding
T2 construct: 34 nM ERα full-length and 1.4 nM Fluormone EL Red were incubated; purchased ThermoFisher A15884
T2 sequence (P03372 1-595): T1 sequence (P03372 1-595)
Procedure: The PolarScreen Estrogen Receptor-Alpha Competitor Assay, Red (ThermoFisher, A15884) was used to determine if the X compounds bind to ERα. The assay was performed according to the manufacturer’s protocol.

[7] = target: T3, AHR (Homo sapiens, UniProt P35869); assay: AHR luciferase reporter assay in HAHLH cells; assay type: cell-based; settings: 8 h; for EC50: % of maximal luciferase activity with dioxin 10 nM, read-out: EC50 AHR transactivation
T3 construct: endogenous in cells; host or cells: HAHLH (HeLa with XRE-luciferase reporter)
T3 sequence (P35869 11-848): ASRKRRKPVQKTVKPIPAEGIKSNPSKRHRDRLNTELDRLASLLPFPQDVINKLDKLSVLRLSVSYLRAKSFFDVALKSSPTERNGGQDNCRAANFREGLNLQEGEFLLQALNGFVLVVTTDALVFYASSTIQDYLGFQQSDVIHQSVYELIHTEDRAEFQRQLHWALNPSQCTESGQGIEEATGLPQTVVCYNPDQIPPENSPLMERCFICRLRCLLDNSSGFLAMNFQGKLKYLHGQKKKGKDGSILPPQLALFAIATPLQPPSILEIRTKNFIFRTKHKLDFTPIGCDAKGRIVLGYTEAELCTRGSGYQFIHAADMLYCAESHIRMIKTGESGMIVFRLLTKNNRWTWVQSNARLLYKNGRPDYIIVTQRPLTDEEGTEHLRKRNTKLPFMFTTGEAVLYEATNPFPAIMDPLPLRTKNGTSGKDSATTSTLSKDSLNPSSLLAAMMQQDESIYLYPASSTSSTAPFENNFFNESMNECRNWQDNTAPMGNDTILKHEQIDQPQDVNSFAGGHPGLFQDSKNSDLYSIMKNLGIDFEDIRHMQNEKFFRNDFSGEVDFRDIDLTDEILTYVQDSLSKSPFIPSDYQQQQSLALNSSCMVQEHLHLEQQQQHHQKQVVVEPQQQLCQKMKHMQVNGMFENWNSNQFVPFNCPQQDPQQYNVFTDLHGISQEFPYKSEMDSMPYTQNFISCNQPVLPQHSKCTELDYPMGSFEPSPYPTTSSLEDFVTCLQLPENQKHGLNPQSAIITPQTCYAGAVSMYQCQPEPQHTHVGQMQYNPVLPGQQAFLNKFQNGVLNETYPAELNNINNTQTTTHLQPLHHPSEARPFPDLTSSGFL
Excerpt: as §2

[8] = read-out: IC50 clonal expansion, Figure 1B, MCF-7 luc D538G, absence of E2, 14 days
[9] = read-out: IC50 clonal expansion, Figure 1C, MCF-7 luc D538G + 10 nM E2, 14 days
[10] = Figure 1B, MCF-7 luc, absence of E2, 14 days
[11] = Figure 1C, MCF-7 luc + 10 nM E2, 14 days

| Compound | inhibition of colony expansion in the presence of AHR antagonist CH223191 [1] | transcription activity of ERα (reporter) [2] | IC50 [3, 8] | IC50 [3, 9] | IC50 ([3]; read-out: IC50 clonal expansion, Figure 1D, MCF-7 luc D538G, absence of E2, 14 days) | IC50 ([3]; read-out: IC50 clonal expansion, Figure 1E, MCF-7 luc D538G + 10 nM E2, 14 days) | Inhibition of Proliferation [4] | IC50 [5, 10] | IC50 [5, 11] | IC50 ([5]; Figure 1D, MCF-7 luc, absence of E2, 14 days) | IC50 ([5]; Figure 1E, MCF-7 luc + 10 nM E2, 14 days) | displacement of the Fluormone tracer from ERα [6] | AHR transcriptional activity (reporter), in words [7] | EC50 [7] |
| --- | --- | --- | --- | --- | --- | --- | --- | --- | --- | --- | --- | --- | --- | --- |
| Fc1ccc(-c2cn3cc(C(F)(F)F)cc(Cl)c3n2)cc1 [X15695] | clearly abrogated by the AHR antagonist CH223191 | reduced | 11.4 nM | 5.34 nM | 11.4 nM | 5.34 nM | Yes | 2.45 nM | 7.96 nM | 2.45 nM | 7.96 nM | did not | potency that surpassed that of the classical AHR ligand dioxin | 0.14 nM |
| Cc1cc(Cl)c2nc(-c3ccc(F)cc3)cn2c1 [X19724] | to a lesser extent | reduced | 324 nM | 31.6 nM | – | – | Yes | 7.41 nM | 15.2 nM | – | – | did not | only modest enhancement | 1.37 nM |
| Cc1cc(Cl)c2nc(-c3ccccc3)cn2c1 [X19728] | no effect on colony formation | reduced | 74.4 nM | 48 nM | – | – | Yes | – | 10.3 nM | – | – | did not | only modest enhancement | 3.94 nM |
